“Also recorded” adds a separate entry of the source. No end group written: not given here.

Nine molecules from patent US20090035295A1, “Screening Method, Process for Purifying of Non-Diffusible A-Beta Oligomers, Selective Antibodies Against Said Non-Diffusible a-Beta Oligomers and a Process for Manufacturing of Said Antibodies” (Abbott GmgH & Co. KG, priority 2005, published 2009) can be followed below.

Data set [1] concerns the target T1, Aβ(1-42) globulomer formation (Homo sapiens, UniProt P05067).
T1 construct: Aβ(1-42) synthetic peptide (Cat. No. H-1368, Bachem, Switzerland); purchased Bachem H-1368; host or cells: chemical synthesis; oligomerised in house (HFIP, DMSO, 0.2% SDS or 0.5% fatty acid, dilution)
The data set is described as follows: Induction of Aβ(1-42) globulomer formation by fatty acids replacing SDS (SDS-PAGE). Format: biochemical. The settings on record: fatty acid in place of SDS, neutral pH. On the procedure:
Lanes: (1) control without inducing agent, (2) positive control with 0.2% SDS, (3) 0.5% lauric acid (12:0), (4) 0.5% oleic acid (18:1), (5) linoleic acid […], (6) eicosapentanoic acid (20:5), (7) docosatetranoic acid (22:4), (8) docosahexanoic acid (22:6), (9) positive control with 0.2% SDS, (10) 1% arachidonic acid. Yields of Aβ(1-42) globulomer (g, indicated with arrowheads) differ between various fatty acids;
A solution of Aβ(1-42) globulomers was prepared as described in example 5a of WO2004/067561. Briefly, Aβ(1-42) synthetic peptide (Cat. No. H-1368, Bachem, Switzerland) was suspended in 1,1,1,3,3,3-hexafluoro-2-propanol (HFIP) at […] and incubated for complete solubilization under shaking at 37° C. for 1.5 h. HFIP was removed by evaporation in a SpeedVac and Aβ(1-42) resuspended at a concentration of 5 mM in dimethyl sulfoxide (DMSO) and 20 sec sonicated. The HFIP pretreated Aβ(1-42) was diluted in phosphate buffered solution (PBS) (20 mM NaH2PO4, 140 mM NaCl, pH 7.4) to 400 μM and 1/10 volume 2% SDS (in H2O) added (final concentration of 0.2% sodium dodecyl sulfate (SDS)).

Data set [2] deals with APP/Lo mice. The data set can be described thus: Novel object recognition task after active immunization of APP/Lo mice. The class given is in vivo, mouse. The settings on record: for RI compared with mice treated with Aβ(1-42) monomer or vehicle: P<0.01, ANOVA, post-hoc Holm-Sidak t-test; for Short term memory for objects: active immunization. The source says: APP [V717I] C57BI×FVB female mice (n=36; 6 weeks old) were used for this study (Moechars et al., 1999). All mice were housed and bred in the animal housing facilities of the Catholic University Leuven, Campus Gasthuisberg, in accordance with the Belgian ethical law on housing, breeding and handling laboratory animals.
They were genotyped by polymerase chain reaction (PCR) at the age of 3 weeks and were double checked by a second PCR at the onset of the study. All mice were blind randomised, age-matched and allocated randomly to a treatment. Animals were re-caged by treatment group one day before the onset of the study in order to allow them to familiarize to the new cage context. […] The food was stored under dry and cool conditions in a well-ventilated storage room. The amount of water and food was checked daily, supplied when necessary and standard refreshed twice a week. Mice were housed under a reversed day-night rhythm: 14 hours light/10 hours darkness, light starting at 7 p.m., in standard metal cages type RVS T2 (area of 540 cm^2) equipped with solid floors and layer of bedding litter.
The first injection contained 50% (v/v) complete Freund's Adjuvants (Difco Laboratories, Detroit, Mich., USA, ref no 263810) while the boost injections contained 50% (v/v) incomplete Freund's Adjuvant (Difco Laboratories, Detroit, Mich., USA, ref no 263910). Administration of compounds was performed every 3 weeks during 3 months (at week 0/3/6/9/12). • Novel object recognition task in immunized mice:
After the last injection all mice underwent a novel objection recognition task. The protocol used followed the method as described by Dewachter I. et al., Journal of Neuroscience, 2002, 22(9):3445-3453. Mice were familiarized for one hour to a Plexiglas open-field box (52×52×40 cm) with black vertical walls and a translucent floor, dimly illuminated by a lamp placed underneath the box. The next day the animals were placed in the same box and submitted to a 10 minutes acquisition trial. During this trial mice were placed individually in the open field in the presence of object A (blue ball or red cube, similar sized of ±4 cm), and the duration (timeAA) and the frequency (FreqAA) exploring object A (when the animals snout was directed towards the object at a distance of <1 cm and the mice were actively sniffing in the direction of the object) was recorded by a computerized system (Ethovision, Noldus information Technology, Wageningen, the Netherlands). During a 10 minutes retention trial (second trial) performed 3 hours later, a novel object (object B, red cube or blue ball) was placed together with the familiar object (object A) into the open field. (FreqA and FreqB and TimeA and TimeB, respectively).
The recognition index (RI), defined as the ratio of the duration in which the novel object was explored over the duration in which both objects were explored [TimeB/(TimeA+TimeB)×100], was used to measure non-spatial memory. The duration and frequency object A was explored during the acquisition trial (TimeAA and FreqAA) was used to measure curiosity.

Data set [3] in a line: In vitro stability in PBS at different temperatures, SDS-PAGE. The class given is physicochemical. As for the experimental part: The sample at 0.5 mg/ml in 20 mM NaH2PO4; 140 mM NaCl; pH 7.4 was incubated at room temperature and 37° C. for 1 day and 4 days, respectively. An aliquot of 10 μl of the samples was analyzed by SDS-PAGE.
An aliquot of 100 μl of each of the samples was analyzed by SDS-PAGE.

For data set [4], the system named is hippocampal neurons. The data set can be described thus: Binding of Aβ forms to cultured hippocampal neurons (immunofluorescence). The class given is cell-based, rat. As for the experimental part:
(§1) Hippocampal cells from rat brain (QBM Cell Science, Canada) were cultured in 24-well plates on poly-L-lysine coated coverslips (BD Biosciences, Germany) in Neurobasal medium with B27 supplement (Invitrogen, Germany) at 37° C., 5% 002. To some cultures mitosis inhibitors (35 μg/ml uridine, 15 μg/ml 5-fluoro-2′-deoxyuridine) were added at DIV6 to prevent an overgrowing with glia. Unless otherwise stated hippocampal cells were used at DIV13-14.
Cells were rinsed three times with 1 ml medium and fixed with 3.7% buffered formaldehdye (Accustain, Sigma, Germany). Unspecific binding sites were blocked by incubation with 10% normal goat serum in PBS (pH 7.4) for 90 min at room temperature to which 0.1% Triton X-100 was added in the case of intracellular counterstaining. […] After each antibody incubation cells were washed three times with PBS and finally mounted in ProLong antifade reagent (Molecular Probes, Germany).

The test system of data set [5] is glia. The data set can be described thus: Binding of Aβ(1-42) globulomer to glia in hippocampal cultures. The class given is cell-based, rat. Particulars: hippocampal preparation, GFAP positive cells. As for the experimental part:
as §1, with “DIV13-14. When Aβ-forms were added, 750 μL fresh 37° C. warm medium containing the Aβ-forms were exchanged of the total 1 ml. Incubation took place for 15 min at 37° C., 5% CO2.” for “DIV13-14.”
Cells were rinsed three times with 1 ml medium and fixed with 3.7% buffered formaldehdye (Accustain, Sigma, Germany). Unspecific binding sites were blocked by incubation with 10% normal goat serum in PBS (pH 7.4) for 90 min at room temperature to which 0.1% Triton X-100 was added in the case of intracellular counterstaining. Primary antibodies (anti Aβ 6E10 (Signet Laboratories, USA), 1:2000; anti GFAP (Dako Cytomation, Germany), 1:2500; anti MAP2 (Chemicon International, Germany), 1:1000) and secondary antibodies (Alexa 488, 1:500; Alexa 635, 1:500; Molecular Probes, Germany) were subsequently incubated for 2 h at room temperature in 10% normal goat serum in PBS (pH 7.4). […]

Data set [6] deals with neuronal cell-lines. The data set can be described thus: Binding of Aβ(1-42) globulomer to neuronal cell-lines. Format: cell-based. The settings on record: data not shown.
In data set [7] the test system is long-term potentiation. The data set can be described thus: Long-term potentiation in rat brain slices (CA1 field potentials). Format: cell-based. On the procedure: Slices were prepared from male Sprague-Dawley rats (7-8 weeks old). Isolated hemispheres were trimmed and then cut using a vibratome. Slices ([…]) were directly transferred to an interface recording chamber and continuously perfused at 33° C. with oxygenated artificial CSF (aCSF: 118 mM NaCl, 1.24 mM KH2PO4, 10 mM glucose, 2 mM MgSO4, 2.5 mM CaCl2, 5 mM KCl, 25.6 mM NaHCO3) at a flow rate of 1.8 ml/min. Freshly prepared slices were allowed to equilibrate for at least one hour before recording. Field potentials were obtained from stratum radiatum of CA1 using glass microelectrodes (0.8-1.2 MΩ) filled with aCSF. The Schaffer collateral was stimulated by a bipolar tungsten electrode (0.5 MO, Science Products GmbH, Germany). Constant voltage biphasic pulses (0.1 ms/phase; range 1-5 V) were applied once per minute at an intensity yielding 30% of the fEPSP maximum. LTP was induced by 2 trains of 100 Hz (1 sec/train with 10 sec intertrain intervall) using the same intensity and pulse length. […] Signals were digitized by a Power CED 1401 and analyzed using the software Signal 2.14 (Cambridge Electronic Design Ltd., Cambridge). For statistical comparison data were analyzed by 2-way repeated measures ANOVA using SAS.

Data set [8] is described as follows: Intracranial injection in rats: in vivo binding and tissue penetration. Particulars: rat. As for the experimental part: For electrophysiological and histological studies, male Sprague-Dawley rats were obtained from Janvier (France) at an age of about 8 weeks.
The rats (260-430 g) were anesthetized with pentobarbital (60 mg/kg i.p.; Narcoren) and fixed in a stereotaxic apparatus according to Paxinos and Watson^36. […] A total volume of 4.3 μL was infused by a 10 μL Hamilton syringe attached to a motorized micropump (WPI, Germany) during 5 min with the cannula being left in place for additional 2 min. […] The infusion was applied via a 10 μL Hamilton syringe during 5 min with the cannula being left in place for additional 5 min.
Therefore, rats were deeply anesthetized with Narcoren. […] Then, the rats were transcardially perfused with 10 mM PBS (pH 7.2) for 5 min, followed by 4% paraformaldehyde (PFA) in PBS. The brains were removed, postfixed overnight in 4% PFA in PBS containing 30% sucrose and transferred into 30% sucrose in PBS for cryoprotection.
A Cy3-labeled donkey anti-mouse antibody (Jackson Laboratories) was used for fluorescence labelling for 1 h. Between the steps and at the end, sections were thoroughly washed in TBST three times for 5 min, after which they were mounted onto glass slides, air-dried and cover-slipped with Vectashield hardest mounting medium containing DAPI (Vector Laboratories) to visualize cell nuclei. All incubations were performed at room temperature. Some sections were also stained with 0.05% thioflavine S (Sigma, Germany) in 50% ethanol for 10 min, followed by two rinses of 100% ethanol for 5 min before embedding in Vectashield. Analysis of labelling was performed under a confocal fluorescence microscope (Zeiss LSM 510 Meta, Germany).

T1 sequence (P05067 672-713 limits assumed): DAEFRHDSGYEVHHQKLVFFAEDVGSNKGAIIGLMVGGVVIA

In the case of `CCCCCCCCCCCC(=O)O` [lauric acid], in data set [1], the “Induction of the characteristic 38/48 kDa Aβ(1-42) globulomer” value (shortened to “Induction”) is reported as “induced”.

With docosatetranoic acid, in data set [1], the “Induction” value is listed as “could not generate”.

On to `CC/C=C\C/C=C\C/C=C\C/C=C\C/C=C\CCCC(=O)O` [eicosapentanoic acid], for which the “Induction” value in data set [1] was “created a partly shifted oligomer”.

In the case of `CCCCC/C=C\C/C=C\CCCCCCCC(=O)O` [linoleic acid], the “Induction” value in data set [1] was “could not generate”.

Take `CC/C=C\C/C=C\C/C=C\C/C=C\C/C=C\C/C=C\CCC(=O)O` [docosahexanoic acid]: in data set [1], the “Induction” value is “could not generate”.

As to “Aβ(20-42) globulomer: truncated globulomer from Aβ(20-42) peptide or thermolysin proteolysis of Aβ(1-42) globulomer (FAEDVGSNKGAIIGLMVGGVVIA; also: globulomer (oligomeric assembly))”, in data set [2], the “RI compared with mice treated with Aβ(1-42) monomer or vehicle” value is on record as “significantly higher” and the “Short term memory for objects” value is “selectively improved”. Moreover, the “Recognition index (RI)” value in data set [2] (second encounter, 3 hours after acquisition, P<0.01 vs chance level) is “more than 50%”.

For `CCCCC/C=C\C/C=C\C/C=C\C/C=C\CCCC(=O)O` [arachidonic acid], in data set [1], the “Induction” value is listed as “induced”.

Regarding `CCCCCCCC/C=C\CCCCCCCC(=O)O` [oleic acid], the “Induction” value in data set [1] is “induced”.

With “Aβ(1-42) globulomer: soluble, globular, non-covalent association of about 12 Aβ(1-42) peptides generated from synthetic peptide with SDS”, the “Stable in PBS” value in data set [3] (PBS, ambient temperature and 37° C.) was “at least 4 days”. Further, the “Globulomer structure maintained without disassembly or further polymerization to fibrils” value in data set [3] (in vitro, physiological temperature (37° C.)) is reported as “up to 4 days”. Also, the “Binding to hippocampal neurons” value in data set [4] (200 nM based on monomer (17 nM globulomer), 15 min, 37° C.) is “strong binding”. Also, the “Hippocampal neurons binding globulomer” value in data set [4] (DIV8) is on record as −1%. Moreover, the Binding to glia entry in data set [5] is on record as “did not bind”. The “Binding to neuronal cell-lines” value in data set [6] is listed as “negative”. Moreover, the “Time after tetanization at which potentiation was significantly impaired (as early as)” value in data set [7] (42 nM, p<0.05) is on record as 5 min. In addition, the “High frequency stimulation-induced LTP” value in data set [7] (42 nM, rat brain slices) was “completely blocks; also recorded: complete block”. Also, the “Basic synaptic functioning (input/output relation)” value in data set [7] (treated versus untreated slices) is “not impaired”. Also, in data set [8] (injection into ventricle), the “Binding to cells of the ventricle walls” value was “rapid and persistent binding”; the “Cell toxicity along the ventricle wall (cell density)” value is given as “without obvious cell toxicity”; the “Diffusion from ependyme into underlying brain tissue” value is on record as “without detectable diffusion”. Besides, in data set [8] (injection into ventricle, data not shown), the “Presence in cerebrospinal fluid after injection” value is “completely disappeared”. For the same molecule, the Tissue penetration entry in data set [8] (intracerebral injection) is on record as “Poor tissue penetration”. Besides, in data set [2], the “RI compared with mice treated with Aβ(1-42) monomer or vehicle” value is reported as “significantly higher” and the “Short term memory for objects” value is reported as “selectively improved”.
